Experimental data reported in US20220395553A1, “CXCR4 ANTAGONIST PEPTIDES” (COHBAR, INC., priority 2019, published 2022).
Square brackets hold non-standard residues; d marks the D form. Peptide text beside a SMILES is read from it.

Experiments:
C2C12 Mouse Myoblasts = test: Glucose utilization in C2C12 mouse myoblasts; format: cell-based; settings: peptide 10 μM, 18-22 hours, relative to 0.1% DMSO treated control cells
Method: The effect of the peptides on glucose metabolism can be assessed using an assay of glucose utilization in cultured cultured cells such as mouse myoblasts. Peptides were initially prepared as 10 mM stock in DMSO and used at a final concentration of 10 μM (0.1% DMSO). C2C12 mouse myoblast cell line was purchased from American Type Culture Collection (Manassas, Va.). C2C12 cultures were maintained at 37° C. in a humidified atmosphere of 5% CO2/95% air with medium changes every second day. C2C12 cells were grown in DMEM (1 g/L glucose) supplemented with 10% FBS with 100 IU/ml penicillin and 100 μg/ml streptomycin. C2C12 cells were seeded at 7,000 cells per well on 96-well plates and cultured to confluence. Once the cell reached confluence the media was changed to DMEM (1 g/L glucose) supplemented with 2% HS with 100 IU/ml penicillin and 100 μg/ml streptomycin and maintained at 37° C. in a humidified atmosphere of 5% CO2/95% air, 5 days post-induction of differentiation fresh DMEM (1 g/L glucose) supplemented with 2% HS with 100 IU/ml penicillin and 100 μg/ml streptomycin was added to cultures. Cells were maintained at 37° C. in a humidified atmosphere of 5% CO2 and 95% air for 5 hours. After 5 hours test peptides at 10 μM or controls (0.5 mM or 1 mM metformin in 1% DMSO) prepared in fresh differentiation medium were added to cells and the cultures were maintained at 37° C. in a humidified atmosphere of 5% CO2/95% air for 18-22 hours. At the end of the incubation culture media was removed from the cells and the remaining glucose concentration was measured using a Glucose Assay kit (Abcam) according to the manufacturer's instructions, using a Cytation 3 plate reader at 570 nm (BioTek, Winooski, Vt.). Glucose concentrations in the medium were calculated relative to 0.1% DMSO treated control cells. The relative standard deviation of the result for the 0.1% DMSO treated control was <20%. Metformin was used as a positive control for reduction of glucose levels (increased glucose utilization glucose levels for treatment with metformin (1 mM) treatment were <20% of the 0.1% DMSO treated control value. The results are reported in Table 7.

Jurkat cells = test: CXCL12 mediated cell migration, Jurkat cells; format: cell-based, human; settings: 1.1 μM test article, 100 ng/ml CXCL12, 1 hour
Outline: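 Jurkat cells in serum-free RPMI with 0.5% BSA, 250,000 per upper chamber of a 5 μm Transwell, with peptides at 1.1 μM final. Migration toward CXCL12 ran 1 h at 37 °C in 5% CO2. Cells reaching the lower chamber quantified by ATP luminescence (CellTiter-Glo 2.0).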

[1] = system: CXCR4/CXCL12 induced p-MEK; test: CXCR4/CXCL12 induced p-MEK in Jurkat cells (ELISA); format: cell-based, human; settings: 5 nM CXCL12, 5 min
Outline: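 Jurkat cells in RPMI+GlutaMax containing 10% FBS and 1% penicillin/streptomycin, fresh or conditioned, were resuspended at 2×10^6 cells/ml and […] aliquots placed in tubes. After a 5 min stimulation they were pelleted, rinsed with HBSS and lysed with PMSF and protease/phosphatase inhibitors. Phospho-MEK1 (Ser217/221) was quantified by sandwich ELISA with absorbance read at 450 nm.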

human CXCR4 = human CXCR4 (Homo sapiens, UniProt P61073); test: IC50 for CXCR4/CXCL12 ligand binding, HTRF format (Example 24); set-up: host or cells: HEK293 (Tag-lite CXCR4 cells, frozen aliquots, transient expression)
Method: Peptides were initially prepared as 1 mM stock in H2O. […] Following the manufacture's protocol, a frozen aliquot of Tag-lite CXCR4 cells was thawed and immediately seeded onto 384-well plates in TLB. […] The plates were covered in aluminum foil and left at room temperature for 3 hours. Following the 3 hour incubation period, the plates were removed from the incubator and fluorescence measured using a Cytation 1 plate reader using a HTRF filter cube ([…]; BioTek; Winooski, Vt.).

Sequence of human CXCR4 (P61073 whole entry): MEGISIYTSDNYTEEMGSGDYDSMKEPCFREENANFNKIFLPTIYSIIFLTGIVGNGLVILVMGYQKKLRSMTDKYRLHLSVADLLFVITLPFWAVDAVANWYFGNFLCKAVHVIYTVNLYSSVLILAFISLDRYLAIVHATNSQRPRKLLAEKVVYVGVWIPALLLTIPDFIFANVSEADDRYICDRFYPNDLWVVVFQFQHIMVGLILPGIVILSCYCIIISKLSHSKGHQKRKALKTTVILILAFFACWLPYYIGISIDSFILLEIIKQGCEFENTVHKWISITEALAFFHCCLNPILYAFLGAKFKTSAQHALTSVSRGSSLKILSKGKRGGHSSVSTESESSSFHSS

SMILES	Glucose concentration in medium, Percent of Untreated Control (C2C12 Mouse Myoblasts) [%]	Percent Inhibition of CXCL12 Mediated Migration (1.1 μM Test Article) (Jurkat cells) [%]	Percent Inhibition of CXCR4/CXCL12 Induced p-MEK (100 nM Test Article) [1] [%]	Percent Inhibition of CXCR4/CXCL12 Induced p-MEK (1 μM Test Article) [1] [%]	IC50 (human CXCR4) [nM]
CSCC[C@H](N)C(=O)N[C@@H](CC(C)C)C(=O)N[C@@H](CCCNC(=N)N)C(=O)N[C@@H](CCCNC(=N)N)C(=O)N[C@@H](Cc1ccc(O)cc1)C(=O)N[C@@H](Cc1c[nH]cn1)C(=O)N[C@@H](Cc1c[nH]cn1)C(=O)N[C@@H](CO)C(=O)N[C@H](C(=O)N[C@@H](CCCNC(=N)N)C(=O)N[C@@H](CO)C(=O)N[C@@H](CO)C(=O)N[C@@H](CC(C)C)C(=O)N[C@@H](CCCNC(=N)N)C(=O)N1CCC[C@H]1C(=O)N[C@@H](Cc1ccc(O)cc1)C(=O)N[C@H](C(=O)N[C@@H](CCCCN)C(=O)O)[C@@H](C)O)C(C)C [compound 2] (H-MLRRYHHSVRSSLRPYTK-OH; N-terminus and C-terminus assumed)	126.7	4	−1	28	
CC(C)C[C@H](NC(=O)[C@H](CO)NC(=O)[C@H](CO)NC(=O)[C@H](CCCNC(=N)N)NC(=O)[C@@H](NC(=O)[C@H](CO)NC(=O)[C@H](Cc1c[nH]cn1)NC(=O)[C@H](Cc1c[nH]cn1)NC(=O)[C@H](Cc1ccc(O)cc1)NC(=O)[C@H](CCCNC(=N)N)NC(=O)[C@H](CCCNC(=N)N)NC(=O)[C@@H](N)CC(C)C)C(C)C)C(=O)N[C@@H](CCCNC(=N)N)C(=O)N1CCC[C@H]1C(=O)N[C@@H](Cc1ccc(O)cc1)C(=O)N[C@H](C(=O)N[C@@H](CCCCN)C(=O)O)[C@@H](C)O [compound 3] (H-LRRYHHSVRSSLRPYTK-OH; N-terminus and C-terminus assumed)	125.8	66	29	91	
CC(C)C[C@H](NC(=O)[C@H](CO)NC(=O)[C@H](CO)NC(=O)[C@H](CCCNC(=N)N)NC(=O)[C@@H](NC(=O)[C@H](CO)NC(=O)[C@H](Cc1c[nH]cn1)NC(=O)[C@H](Cc1c[nH]cn1)NC(=O)[C@H](Cc1ccc(O)cc1)NC(=O)[C@H](CCCNC(=N)N)NC(=O)[C@H](CCC(=O)O)NC(=O)[C@@H](N)CC(C)C)C(C)C)C(=O)N[C@@H](CCCNC(=N)N)C(=O)N1CCC[C@H]1C(=O)N[C@@H](Cc1ccc(O)cc1)C(=O)N[C@H](C(=O)N[C@@H](CCCCN)C(=O)O)[C@@H](C)O [compound 4] (H-LERYHHSVRSSLRPYTK-OH; N-terminus and C-terminus assumed)	127.8	77	40	76	6
CC(C)C[C@H](NC(=O)[C@H](CO)NC(=O)[C@H](CO)NC(=O)[C@H](CCCNC(=N)N)NC(=O)[C@@H](C)NC(=O)[C@H](CO)NC(=O)[C@H](Cc1c[nH]cn1)NC(=O)[C@H](Cc1c[nH]cn1)NC(=O)[C@H](Cc1ccc(O)cc1)NC(=O)[C@H](CCCNC(=N)N)NC(=O)[C@H](CCC(=O)O)NC(=O)[C@@H](N)CC(C)C)C(=O)N[C@@H](CCCNC(=N)N)C(=O)N1CCC[C@H]1C(=O)N[C@@H](Cc1ccc(O)cc1)C(=O)N[C@H](C(=O)O)[C@@H](C)O [compound 5] (H-LERYHHS[dA]RSSLRPYT-OH; N-terminus and C-terminus assumed)	128.3	46	−20	24	33
